Measured values published in patent US20230093861A1, “RAPAMYCIN ANALOGS AS MTOR INHIBITORS” (Revolution Medicines, Inc., priority 2017, published 2023).
Where two headings read alike, the source gives them in different places.

What was measured:
P-4E-BP1 (T37/46) = experiment: Cell based AlphaLISA assay, inhibition of P-4E-BP1 (T37/46) (mTORC1 substrate phosphorylation) in MDA-MB-468 cells; details: Homo sapiens, AlphaLISA, two to four hours at 37° C., read-out: pIC50 for Inhibition of mTORC1 and mTORC2 Substrate Phosphorylation, P-4E-BP1-(T37/46) (converted)
Experimental: (§1) Cell Based AlphaLISA Assays for Determining IC50 for Inhibition of P-Akt (S473), P-4E-BP1 (T37/46), and P-P70S6K (T389) in MDA-MB-468 Cells
(§2) mTOR Kinase Cellular Assay
(§3) To measure functional activity of mTORC1 and mTORC2 in cells the phosphorylation of 4EBP1 (Thr37/46) and P70S6K (Thr389), and AKT1/2/3 (Ser473) was monitored using AlphaLisa SureFire Ultra Kits (Perkin Elmer). […] Incubations were terminated by removal of the assay buffer and addition of lysis buffer provided with the assay kit. Samples were processed according to the manufacturer's instructions. The Alpha signal from the respective phosphoproteins was measured in duplicate using a microplate reader (Envision, Perkin-Elmer or Spectramax M5, Molecular Devices). Inhibitor concentration response curves were analyzed using normalized IC50 regression curve fitting with control based normalization.

P-P70S6K (T389) = experiment: Cell based AlphaLISA assay, inhibition of P-P70S6K (T389) (mTORC1 substrate phosphorylation) in MDA-MB-468 cells; details: Homo sapiens, 4 h, AlphaLISA, two to four hours at 37° C., read-out: pIC50 for Inhibition of mTORC1 and mTORC2 Substrate Phosphorylation, P-P70S6K-(T389) (converted)
Experimental: as §1, §2, §3

P-Akt (S473) = experiment: Cell based AlphaLISA assay, inhibition of P-Akt (S473) (mTORC2 substrate phosphorylation) in MDA-MB-468 cells; details: Homo sapiens, AlphaLISA, two to four hours at 37° C., read-out: pIC50 for Inhibition of mTORC1 and mTORC2 Substrate Phosphorylation, p-AKT 1/2/3 -(S473) (converted)
Experimental: as §1, §2, §3

Compound	IC50 (P-4E-BP1 (T37/46); MDA-MB-468, 4 h) [nM]	IC50 (P-P70S6K (T389)) [nM]	IC50 (P-Akt (S473); MDA-MB-468, 4 h) [nM]	IC50 (P-4E-BP1 (T37/46); 4 h) [nM]	IC50 (P-Akt (S473); 4 h) [nM]
CO[C@H]1C[C@@H]2CC[C@@H](C)[C@@](O)(O2)C(=O)C(=O)N2CCCC[C@H]2C(=O)O[C@H]([C@H](C)C[C@@H]2CC[C@@H](OCCCCc3cn(CCOCCOCCOCCOCCOCCOCCOCCOCCOCCOCCOCCOCCOCCOCCOCCOCCOCCOCCOCCOCCOCCOCCOCCOCCC(=O)NCCCCn4nc(-c5ccc6oc(N)nc6c5)c5c(N)ncnc54)nn3)[C@H](OC)C2)CC(=O)[C@H](C)/C=C(\C)[C@@H](O)[C@@H](OC)C(=O)[C@H](C)C[C@H](C)/C=C/C=C/C=C/1C [Example 97]	3.16 to 31.6	1 to 10	3.16 to 31.6	–	–
CO[C@H]1C[C@@H]2CC[C@@H](C)[C@@](O)(O2)C(=O)C(=O)N2CCCC[C@H]2C(=O)O[C@H]([C@H](C)C[C@@H]2CC[C@H](n3cc(COC(=O)NCCOCCOCCOCCOCCC(=O)NCCOCCOCCOCCOCCC(=O)NCCCCn4nc(-c5ccc6oc(N)nc6c5)c5c(N)ncnc54)nn3)[C@H](OC)C2)CC(=O)[C@H](C)/C=C(\C)[C@@H](O)[C@@H](OC)C(=O)[C@H](C)C[C@H](C)/C=C/C=C/C=C/1C [Example 125]	3.16 to 31.6	1 to 10	3.16 to 31.6	–	–
CO[C@H]1C[C@@H]2CC[C@@H](C)[C@@](O)(O2)C(=O)C(=O)N2CCCC[C@H]2C(=O)O[C@H]([C@H](C)C[C@@H]2CC[C@@H](OCCCCc3cn(CCOCCOCCOCCC(=O)NCCOCCOCCOCCC(=O)NCCCCn4nc(-c5cc6cc(O)ccc6[nH]5)c5c(N)ncnc54)nn3)[C@H](OC)C2)CC(=O)[C@H](C)/C=C(\C)[C@@H](O)[C@@H](OC)C(=O)[C@H](C)C[C@H](C)/C=C/C=C/C=C/1C [Example 199]	< 3.16	< 1	31.6 to 1000	–	–
CO[C@H]1C[C@@H]2CC[C@@H](C)[C@@](O)(O2)C(=O)C(=O)N2CCCC[C@H]2C(=O)O[C@H]([C@H](C)C[C@@H]2CC[C@@H](OCCOCc3cn(CCOCCOCCOCCOCCOCCOCCOCCOCCC(=O)NCCCCn4nc(-c5cc6cc(O)ccc6[nH]5)c5c(N)ncnc54)nn3)[C@H](OC)C2)CC(=O)[C@H](C)/C=C(\C)[C@@H](O)[C@@H](OC)C(=O)[C@H](C)C[C@H](C)/C=C/C=C/C=C/1C [Example 53]	–	< 1	–	< 3.16	3.16 to 31.6
CO[C@H]1C[C@@H]2CC[C@@H](C)[C@@](O)(O2)C(=O)C(=O)N2CCCC[C@H]2C(=O)O[C@H]([C@H](C)C[C@@H]2CC[C@H](n3cc(-c4cccc(C(=O)NCCOCCOCCOCCC(=O)NCCOCCOCCOCCC(=O)NCCCCn5nc(-c6cc7cc(O)ccc7[nH]6)c6c(N)ncnc65)c4)nn3)[C@H](OC)C2)CC(=O)[C@H](C)/C=C(\C)[C@@H](O)[C@@H](OC)C(=O)[C@H](C)C[C@H](C)/C=C/C=C/C=C/1C [Example 138]	> 1000	1 to 10	31.6 to 1000	–	–
CO[C@H]1C[C@@H]2CC[C@@H](C)[C@@](O)(O2)C(=O)C(=O)N2CCCC[C@H]2C(=O)O[C@H]([C@H](C)C[C@@H]2CC[C@H](n3cc(COC(=O)NCCOCCOCCOCCC(=O)NCCOCCOCCOCCC(=O)NCCCCn4nc(-c5ccc6oc(N)nc6c5)c5c(N)ncnc54)nn3)[C@H](OC)C2)C[C@@H](OC)[C@H](C)/C=C(\C)[C@@H](O)[C@@H](OC)C(=O)[C@H](C)C[C@H](C)/C=C/C=C/C=C/1C [Example 145]	31.6 to 1000	1 to 10	> 1000	–	–
CO[C@H]1C[C@@H]2CC[C@@H](C)[C@@](O)(O2)C(=O)C(=O)N2CCCC[C@H]2C(=O)O[C@H]([C@H](C)C[C@@H]2CC[C@H](OCCCCc3cn(CCOCCOCCOCCOCCOCCOCCC(=O)NCCCCn4nc(-c5cccc(C(=O)NC6=NCCS6)c5)c5c(N)ncnc54)nn3)[C@H](OC)C2)CC(=O)[C@H](C)/C=C(\C)[C@@H](O)[C@@H](OC)C(=O)[C@H](C)C[C@H](C)/C=C/C=C/C=C/1C (stereo in doubt) [Example 41]	3.16 to 31.6	< 1	> 1000	–	–
CO/N=C1/C[C@@H]([C@H](C)C[C@@H]2CC[C@H](n3cc(CCCC(=O)NCCOCCOCCOCCC(=O)NCCOCCOCCC(=O)NCCCCn4nc(-c5ccc6oc(N)nc6c5)c5c(N)ncnc54)nn3)[C@H](OC)C2)OC(=O)[C@@H]2CCCCN2C(=O)C(=O)[C@]2(O)O[C@@H](CC[C@H]2C)C[C@H](OC)/C(C)=C/C=C/C=C/[C@@H](C)C[C@@H](C)C(=O)[C@H](OC)[C@H](O)/C(C)=C/[C@H]1C [Example 169]	> 1000	10 to 1000	> 1000	–	–
CO[C@H]1C[C@@H]2CC[C@@H](C)[C@@](O)(O2)C(=O)C(=O)N2CCCC[C@H]2C(=O)O[C@H]([C@H](C)C[C@@H]2CC[C@@H](O)[C@H](OC)C2)C[C@@H](O)[C@H](C)/C=C(\C)[C@@H](O)[C@@H](OC)C(=NOCc2cn(CCOCCOCCOCCOCCOCCOCCOCCOCCC(=O)N3CCc4cc(Cn5nc(-c6ccc7oc(N)nc7c6)c6c(N)ncnc65)ccc4C3)nn2)[C@H](C)C[C@H](C)/C=C/C=C/C=C/1C [Example 87]	3.16 to 31.6	< 1	> 1000	–	–
CO[C@H]1C[C@@H]2CC[C@@H](C)[C@@](O)(O2)C(=O)C(=O)N2CCCC[C@H]2C(=O)O[C@H]([C@H](C)C[C@@H]2CC[C@H](n3cc(COC(=O)NCCOCCOCCOCCC(=O)NCCOCCOCCOCCC(=O)NCCCCn4nc(-c5ccc6oc(N)nc6c5)c5c(N)ncnc54)nn3)[C@H](OC)C2)CC(=O)[C@H](C)/C=C(\C)[C@@H](O)[C@@H](OC)C(=O)[C@H](C)C[C@H](C)/C=C/C=C/C=C/1C [Example 122]	3.16 to 31.6	1 to 10	3.16 to 31.6	–	–
CO[C@H]1C[C@@H]2CC[C@@H](C)[C@@](O)(O2)C(=O)C(=O)N2CCCC[C@H]2C(=O)O[C@H]([C@H](C)C[C@@H]2CC[C@@H](OCCCCc3cn(CCOCCOCCOCCC(=O)NCCOCCOCCOCCC(=O)NCCCCn4nc(-c5ccc6oc(N)nc6c5)c5c(N)ncnc54)nn3)[C@H](OC)C2)CC(=O)[C@H](C)/C=C(\C)[C@@H](O)[C@@H](OC)C(=O)[C@H](C)C[C@H](C)/C=C/C=C/C=C/1C [Example 198]	< 3.16	< 1	3.16 to 31.6	–	–
CO[C@H]1C[C@@H]2CC[C@@H](C)[C@@](O)(O2)C(=O)C(=O)N2CCCC[C@H]2C(=O)O[C@H]([C@H](C)C[C@@H]2CC[C@@H](OCCC(C)(C)Cc3cn(CCOCCOCCOCCOCCOCCOCCOCCOCCC(=O)NCCCCn4nc(-c5ccc6oc(N)nc6c5)c5c(N)ncnc54)nn3)[C@H](OC)C2)CC(=O)[C@H](C)/C=C(\C)[C@@H](O)[C@@H](OC)C(=O)[C@H](C)C[C@H](C)/C=C/C=C/C=C/1C [Example 58]	< 3.16	< 1	< 3.16	–	–
CO[C@@H]1C[C@H](C[C@@H](C)[C@@H]2CC(=O)[C@H](C)/C=C(\C)[C@@H](O)[C@@H](OC)C(=O)[C@H](C)C[C@H](C)/C=C/C=C/C=C(\C)[C@@H](c3ccco3)C[C@@H]3CC[C@@H](C)[C@@](O)(O3)C(=O)C(=O)N3CCCC[C@H]3C(=O)O2)CC[C@H]1OCCCCc1cn(CCOCCOCCOCCOCCOCCOCCC(=O)NCCCCn2nc(-c3ccc4oc(N)nc4c3)c3c(N)ncnc32)nn1 (stereo in doubt) [Example 19]	–	< 1	–	–	–
